In brackets after ≈: the same amount, converted by molar mass.
Experiments:
E.coli 25922 = test: Antibacterial spectrum (MIC), agar dilution; type: cell-based; conditions: Escherichia coli, read-out: MIC
Method: (§1) In vitro activity was determined by minimum inhibitory concentration in a microorganism spectum by the agar dilution method in Mueller Hinton agar.

C.freundii 902 = test: Antibacterial spectrum (MIC), agar dilution; type: cell-based; conditions: Citrobacter freundii, read-out: MIC
Method: as §1

S.pyogenes B15 = test: Antibacterial spectrum (MIC), agar dilution; type: cell-based; conditions: Streptococcus pyogenes, read-out: MIC
Method: as §1

X.maltophilia 1AC739 = test: Antibacterial spectrum (MIC), agar dilution; type: cell-based; conditions: Stenotrophomonas maltophilia, read-out: MIC
Method: as §1

C.difficile ZH1 = test: Antibacterial spectrum (MIC), agar dilution; type: cell-based; conditions: Clostridioides difficile, read-out: MIC
Method: as §1

Acinetobacter sp.51-156 = test: Antibacterial spectrum (MIC), agar dilution; type: cell-based; conditions: SP.51156, read-out: MIC
Method: as §1

P.mirabilis 2117 = test: Antibacterial spectrum (MIC), agar dilution; type: cell-based; conditions: Proteus mirabilis, read-out: MIC
Method: as §1

K.pneumoniae 418 = test: Antibacterial spectrum (MIC), agar dilution; type: cell-based; conditions: Klebsiella pneumoniae, read-out: MIC
Method: as §1

H.influenzae 1 = test: Antibacterial spectrum (MIC), agar dilution; type: cell-based; conditions: Haemophilus influenzae, read-out: MIC
Method: as §1

E.cloacae 908R = test: Antibacterial spectrum (MIC), agar dilution; type: cell-based; conditions: Enterobacter cloacae, read-out: MIC
Method: as §1

L.monocytogenes BK23 = test: Antibacterial spectrum (MIC), agar dilution; type: cell-based; conditions: Listeria monocytogenes, read-out: MIC
Method: as §1

S.pneumoniae Q19 = test: Antibacterial spectrum (MIC), agar dilution; type: cell-based; conditions: Streptococcus pneumoniae, read-out: MIC
Method: as §1

P.vulgaris 1028 = test: Antibacterial spectrum (MIC), agar dilution; type: cell-based; conditions: Proteus vulgaris, read-out: MIC
Method: as §1

E.cloacae 908SSi = test: Antibacterial spectrum (MIC), agar dilution; type: cell-based; conditions: Enterobacter cloacae, read-out: MIC
Method: as §1

S.aureus 6538 = test: Antibacterial spectrum (MIC), agar dilution; type: cell-based; conditions: Staphylococcus aureus, read-out: MIC
Method: as §1

P.aeruginosa 27853 = test: Antibacterial spectrum (MIC), agar dilution; type: cell-based; conditions: Pseudomonas aeruginosa, read-out: MIC
Method: as §1

B.fragilis ATCC25285 = test: Antibacterial spectrum (MIC), agar dilution; type: cell-based; conditions: Bacteroides fragilis, read-out: MIC
Method: as §1

C.freundii 43 = test: Antibacterial spectrum (MIC), agar dilution; type: cell-based; conditions: Citrobacter freundii, read-out: MIC
Method: as §1

S.marcescens 69438 = test: Antibacterial spectrum (MIC), agar dilution; type: cell-based; conditions: Serratia marcescens, read-out: MIC
Method: as §1

S.agalactiae QK44 = test: Antibacterial spectrum (MIC), agar dilution; type: cell-based; conditions: Streptococcus agalactiae, read-out: MIC
Method: as §1

M.morganii 6H-137 = test: Antibacterial spectrum (MIC), agar dilution; type: cell-based; conditions: Morganella morganii, 6H137, read-out: MIC
Method: as §1

N.meningitidis 69480 = test: Antibacterial spectrum (MIC), agar dilution; type: cell-based; conditions: Neisseria meningitidis, read-out: MIC
Method: as §1

S.viridans group 016 = test: Antibacterial spectrum (MIC), agar dilution; type: cell-based; conditions: Streptococcus viridans, read-out: MIC
Method: as §1

P.asaccharolyticus 29743 = test: Antibacterial spectrum (MIC), agar dilution; type: cell-based; conditions: Peptoniphilus asaccharolyticus, read-out: MIC
Method: as §1

M.catarrhalis RA21 = test: Antibacterial spectrum (MIC), agar dilution; type: cell-based; conditions: Moraxella catarrhalis, read-out: MIC
Method: as §1

E.faecalis 6 = test: Antibacterial spectrum (MIC), agar dilution; type: cell-based; conditions: Enterococcus faecalis, read-out: MIC
Method: as §1

S.aureus 734 MRSA = test: Antibacterial spectrum (MIC), agar dilution; type: cell-based; conditions: Staphylococcus aureus, read-out: MIC
Method: as §1

S.aureus MSSA = test: In vitro activity against selected species (MIC50, MIC90, range); type: cell-based; conditions: Staphylococcus aureus, medium MHB (Mueller Hinton Broth); for MIC: MIC range
S.pneumoniae PEN-R = test: as above; type: cell-based; conditions: Streptococcus pneumoniae; for MIC: MIC range
Escherichia coli 25922 = test: Efficacy against systemic infections (septicemia) in mice; type: in vivo; conditions: 96 h, survival day 4
Method: (§2) Septicemia was induced in outbred Swiss albino mice (Jbm MoRo [specific pathogen free]; weight 16 to 20 g, Biomedical Research Laboratories, Füllinsdorf, Switzerland). Mice were infected by intraperitoneal injection of diluted overnight cultures of the test organisms. Bacterial challenge doses were 4-10 times the number of organisms required to kill 50% of untreated animals within 48 h. The test compounds were administered p.o. or s.c. 1 and 3 h after the bacterial challenge. To treat the infection with Pseudomonas aeruginosa BA an additional dose was given 5 h after challenge. Control and treatment groups at each dose were composed of five mice each. The 50% effective dose (ED50, in milligrams per kilogram) was calculated by probit analysis as described by Finney (Finney, D.J. 1978, Statistical method in biological assay, 3rd ed. Charles Griffin & Co., Ltd., London), from the survival rates on day 4 after infection.

S.aureus Smith = test: as above; type: in vivo; conditions: Staphylococcus aureus, 96 h, sc 1 and 3 h after challenge, survival day 4
Method: as §2

S.aureus MRSA = test: In vitro activity against selected species (MIC50, MIC90, range); type: cell-based; conditions: Staphylococcus aureus, medium MHA (Mueller Hinton Agar) +NaCl; for MIC: MIC range
Method: as §1

E.faecalis [1] = test: as above; type: cell-based; conditions: Enterococcus faecalis, medium MHA
Method: as §1

E.faecium = test: In vitro activity against selected species (MIC50, range); type: cell-based; conditions: Enterococcus faecium, medium MHA; for MIC: MIC range
Method: as §1

E.faecalis [2] = test: In vitro activity against selected species (MIC50, MIC90, range); type: cell-based; conditions: Enterococcus faecalis, medium IsoB
M.catarrhalis = test: as above; type: cell-based; conditions: Moraxella catarrhalis, medium IsoB
S.viridans group = test: as above; type: cell-based; conditions: Streptococcus viridans
[3] = medium IsoB (Isosensitest Broth)
[4] = Escherichia coli 25922, po (orally) 1 and 3 h after challenge
[5] = Escherichia coli, E.coli 25922, sc 1 and 3 h after challenge

CO/N=C(\C(=O)N[C@@H]1C(=O)N2C(C(=O)O)=C(CSc3nc(=O)c(=O)[nH]n3C)CS[C@H]12)c1csc(N)n1 [Ceftriaxone, [6R-[6 α,7 β(Z)]]-7-[[(2-Amino-4-thiazolyl)(methoxyimino)acetyl]amino]-8-oxo-3-[[(1,2,5,6-tetrahydro-2-methyl-5,6-dioxo-1,2,4-triazin-3-yl)thio]methyl]-5-thia-1-azabicyclo[4.2.0]oct-2-ene-2-carboxylic acid, reference compound]
MIC (E.coli 25922): ≤ 0.06 µg/mL | MIC (C.freundii 902): 0.25 µg/mL (≈ 0.451 µM) | MIC (S.pyogenes B15): ≤ 0.06 µg/mL | MIC (X.maltophilia 1AC739): > 32 µg/mL | MIC (C.difficile ZH1): > 32 µg/mL | MIC (Acinetobacter sp.51-156): 32 µg/mL (≈ 57.7 µM) | MIC (P.mirabilis 2117): ≤ 0.06 µg/mL | MIC (K.pneumoniae 418): ≤ 0.06 µg/mL | MIC (H.influenzae 1): < 0.06 µg/mL | MIC (E.cloacae 908R): > 32 µg/mL | MIC (L.monocytogenes BK23): > 16 µg/mL | MIC (S.pneumoniae Q19): ≤ 0.06 µg/mL | MIC (P.vulgaris 1028): 0.12 µg/mL (≈ 0.216 µM) | MIC (E.cloacae 908SSi): 0.25 µg/mL (≈ 0.451 µM) | MIC (S.aureus 6538): 4 µg/mL (≈ 7.21 µM) | MIC (P.aeruginosa 27853): 16 µg/mL (≈ 28.9 µM) | MIC (B.fragilis ATCC25285): 16 µg/mL (≈ 28.9 µM) | MIC (C.freundii 43): 32 µg/mL (≈ 57.7 µM) | MIC (S.marcescens 69438): 0.25 µg/mL (≈ 0.451 µM) | MIC (S.agalactiae QK44): ≤ 0.06 µg/mL | MIC (M.morganii 6H-137): ≤ 0.06 µg/mL | MIC (N.meningitidis 69480): < 0.01 µg/mL | MIC (S.viridans group 016): 0.25 µg/mL (≈ 0.451 µM) | MIC (P.asaccharolyticus 29743): 0.25 µg/mL (≈ 0.451 µM) | MIC (M.catarrhalis RA21): 1 µg/mL (≈ 1.8 µM) | MIC (E.faecalis 6): > 32 µg/mL | MIC (S.aureus 734 MRSA): > 32 µg/mL | MIC (S.aureus MSSA): 2 to 16 µg/mL (≈ 3.61 to 28.9 µM) | MIC50 (S.aureus MSSA): 4 µg/mL (≈ 7.21 µM) | MIC90 (S.aureus MSSA): 16 µg/mL (≈ 28.9 µM) | MIC (S.pneumoniae PEN-R; [3]): 0.1 to 2 µg/mL (≈ 0.18 to 3.61 µM) | MIC (S.pneumoniae PEN-R; medium IsoB + 20% serum): 1 to 8 µg/mL | MIC50 (S.pneumoniae PEN-R; [3]): 0.5 µg/mL (≈ 0.902 µM) | MIC90 (S.pneumoniae PEN-R; [3]): 1 µg/mL (≈ 1.8 µM) | MIC50 (S.pneumoniae PEN-R; medium IsoB + 20% serum): 4 µg/mL | ED50 (Escherichia coli 25922; [4]): 0.9 mg/kg | ED50 (Escherichia coli 25922; [5]): ≤ 0.01 mg/kg | ED50 (S.aureus Smith): < 2 mg/kg | MIC (S.aureus MRSA): > 32 µg/mL | MIC50 (S.aureus MRSA): > 32 µg/mL | MIC90 (S.aureus MRSA): > 32 µg/mL | MIC50 (E.faecalis [1]): > 32 µg/mL | MIC90 (E.faecalis [1]): > 32 µg/mL | MIC (E.faecium): > 32 µg/mL | MIC50 (E.faecium): > 32 µg/mL

CON1CC/C(=C\C2=C(C(=O)O)N3C(=O)[C@@H](NC(=O)/C(=N\O)c4csc(N)n4)[C@H]3SC2)C1=O [G]
MIC (E.coli 25922): ≤ 0.06 µg/mL | MIC (C.freundii 902): ≤ 0.06 µg/mL | MIC (S.pyogenes B15): ≤ 0.06 µg/mL | MIC (X.maltophilia 1AC739): > 32 µg/mL | MIC (Acinetobacter sp.51-156): 8 µg/mL (≈ 16.2 µM) | MIC (P.mirabilis 2117): ≤ 0.06 µg/mL | MIC (K.pneumoniae 418): ≤ 0.06 µg/mL | MIC (H.influenzae 1): 0.12 µg/mL (≈ 0.243 µM) | MIC (E.cloacae 908R): 32 µg/mL (≈ 64.7 µM) | MIC (L.monocytogenes BK23): 2 µg/mL (≈ 4.04 µM) | MIC (S.pneumoniae Q19): ≤ 0.06 µg/mL | MIC (P.vulgaris 1028): 2 µg/mL (≈ 4.04 µM) | MIC (E.cloacae 908SSi): 0.25 µg/mL (≈ 0.506 µM) | MIC (S.aureus 6538): 0.5 µg/mL (≈ 1.01 µM) | MIC (P.aeruginosa 27853): 32 µg/mL (≈ 64.7 µM) | MIC (C.freundii 43): 4 µg/mL (≈ 8.09 µM) | MIC (S.marcescens 69438): 1 µg/mL (≈ 2.02 µM) | MIC (S.agalactiae QK44): 0.25 µg/mL (≈ 0.506 µM) | MIC (M.morganii 6H-137): ≤ 0.06 µg/mL | MIC (N.meningitidis 69480): ≤ 0.06 µg/mL | MIC (S.viridans group 016): 0.5 µg/mL (≈ 1.01 µM) | MIC (M.catarrhalis RA21): 16 µg/mL (≈ 32.4 µM) | MIC (E.faecalis 6): 1 µg/mL (≈ 2.02 µM) | MIC (S.aureus 734 MRSA): 16 µg/mL (≈ 32.4 µM) | MIC (E.faecalis [2]; MIC range): 0.25 to 2 µg/mL (≈ 0.506 to 4.04 µM) | MIC50 (E.faecalis [2]): 0.5 µg/mL (≈ 1.01 µM) | MIC90 (E.faecalis [2]): 2 µg/mL (≈ 4.04 µM) | MIC (S.aureus MSSA): 1 to 2 µg/mL (≈ 2.02 to 4.04 µM) | MIC50 (S.aureus MSSA): 1 µg/mL (≈ 2.02 µM) | MIC90 (S.aureus MSSA): 1 µg/mL (≈ 2.02 µM) | MIC (S.pneumoniae PEN-R; [3]): 0.1 to 0.5 µg/mL (≈ 0.202 to 1.01 µM) | MIC (S.pneumoniae PEN-R; medium IsoB + 20% serum): 0.12 to 0.5 µg/mL | MIC50 (S.pneumoniae PEN-R; [3]): 0.25 µg/mL (≈ 0.506 µM) | MIC90 (S.pneumoniae PEN-R; [3]): 0.5 µg/mL (≈ 1.01 µM) | MIC50 (S.pneumoniae PEN-R; medium IsoB + 20% serum): 0.5 µg/mL | MIC (M.catarrhalis; MIC range): 1 to 32 µg/mL (≈ 2.02 to 64.7 µM) | MIC50 (M.catarrhalis): 4 µg/mL (≈ 8.09 µM) | MIC90 (M.catarrhalis): 16 µg/mL (≈ 32.4 µM) | ED50 (Escherichia coli 25922; [4]): ~3 mg/kg | ED50 (Escherichia coli 25922; [5]): < 0.1 mg/kg | ED50 (S.aureus Smith): < 1 mg/kg | MIC (S.aureus MRSA): 8 to 16 µg/mL (≈ 16.2 to 32.4 µM) | MIC50 (S.aureus MRSA): 16 µg/mL (≈ 32.4 µM) | MIC90 (S.aureus MRSA): 16 µg/mL (≈ 32.4 µM) | MIC (E.faecalis [1]; MIC range): 0.5 to 2 µg/mL (≈ 1.01 to 4.04 µM) | MIC50 (E.faecalis [1]): ≤ 0.5 µg/mL | MIC90 (E.faecalis [1]): 2 µg/mL (≈ 4.04 µM) | MIC (E.faecium): 1 to 8 µg/mL (≈ 2.02 to 16.2 µM) | MIC50 (E.faecium): 4 µg/mL (≈ 8.09 µM) | MIC50 (S.viridans group): 2 µg/mL (≈ 4.04 µM) | MIC90 (S.viridans group): 2 µg/mL (≈ 4.04 µM) | MIC (S.viridans group; MIC range): 0.12 to 8 µg/mL (≈ 0.243 to 16.2 µM)
